Series [1] addresses T1, Monocarboxylate transporter 1 (Rattus norvegicus, UniProt P53987).
T1 sequence (P53987 whole entry): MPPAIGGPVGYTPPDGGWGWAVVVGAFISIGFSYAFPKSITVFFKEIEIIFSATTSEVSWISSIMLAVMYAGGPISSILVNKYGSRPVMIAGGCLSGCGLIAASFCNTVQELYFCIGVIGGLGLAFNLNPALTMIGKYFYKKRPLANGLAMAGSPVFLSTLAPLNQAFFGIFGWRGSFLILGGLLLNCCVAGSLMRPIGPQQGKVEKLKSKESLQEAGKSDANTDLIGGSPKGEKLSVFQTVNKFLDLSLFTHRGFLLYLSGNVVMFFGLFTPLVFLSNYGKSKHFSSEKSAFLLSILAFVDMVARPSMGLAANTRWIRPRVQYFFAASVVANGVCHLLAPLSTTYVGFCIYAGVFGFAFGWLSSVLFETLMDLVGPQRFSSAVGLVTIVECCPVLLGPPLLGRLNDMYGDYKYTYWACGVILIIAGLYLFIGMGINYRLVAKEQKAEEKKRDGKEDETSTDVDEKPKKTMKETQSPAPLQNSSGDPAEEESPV
The series can be described thus: Inhibition of MCT1 in rat RBE4 cells assessed as reduction in [14C]lactate uptake measured after 15 mins by liquid scintillation counting analysis. The series is classed as cell-based.

The next series deals with Raji. The series can be described thus: Cytotoxicity against human Raji cells. It is filed as functional, cell-based.
The target in series [2] is T2, Large neutral amino acids transporter small subunit 1 (Homo sapiens, UniProt Q01650). The series can be described thus: Inhibition of LAT1 in human MCF7 cells assessed as inhibition of leucine uptake. The series is classed as cell-based.
T2 sequence (Q01650 whole entry): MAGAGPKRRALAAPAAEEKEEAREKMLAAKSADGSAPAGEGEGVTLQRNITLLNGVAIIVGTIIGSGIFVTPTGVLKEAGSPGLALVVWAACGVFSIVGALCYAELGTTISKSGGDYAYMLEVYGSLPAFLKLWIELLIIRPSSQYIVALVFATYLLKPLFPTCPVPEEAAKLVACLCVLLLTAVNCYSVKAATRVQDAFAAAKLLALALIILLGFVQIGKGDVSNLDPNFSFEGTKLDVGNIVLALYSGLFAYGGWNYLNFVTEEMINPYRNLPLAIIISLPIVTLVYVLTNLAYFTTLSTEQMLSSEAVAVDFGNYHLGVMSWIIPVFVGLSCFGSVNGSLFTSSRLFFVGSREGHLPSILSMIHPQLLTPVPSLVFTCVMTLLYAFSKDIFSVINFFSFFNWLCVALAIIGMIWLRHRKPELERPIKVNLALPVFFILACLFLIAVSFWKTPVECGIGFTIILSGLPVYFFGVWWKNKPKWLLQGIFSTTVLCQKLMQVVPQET
A further series relates to MCF7. The series can be described thus: Antiproliferative activity against human MCF7 cells assessed as inhibition of cell growth. The series is classed as functional, cell-based.
Series [3] deals with T2, Large neutral amino acids transporter small subunit 1. The series can be described thus: Inhibition of LAT1 (unknown origin) expressed in astrocytes assessed as inhibition of [14C]phenylalanine uptake at 50 uM. It is filed as cell-based. Particulars: Astrocyte.
Series [4] shares this target. The series can be described thus: Inhibition of LAT1 (unknown origin) expressed in S2 cells assessed as inhibition of [14C]phenylalanine uptake at 50 uM. The series is classed as cell-based.
Series [5] in a line: Half life in human. The series is classed as ADME.
The test system of the next series is MIA PaCa-2. The series can be described thus: Antitumor activity against human MIA PaCa-2 cells xenografted in ip dosed mouse assessed as prolongation of animal's mean life span. It is filed as functional. On the technique in general: A xenograft is tissue or cells of one species grown in another, often human tumour cells in immunodeficient mice.
Another series has as its system BXPC-3. The series can be described thus: Antitumor activity against human BXPC-3 cells xenografted in ip dosed mouse assessed as prolongation of animal's mean life span. It is filed as functional.
Series [6] in a line: Drug metabolism in Sprague-Dawley rat plasma at 10 uM measured after 8 hrs. It is filed as ADME, cell-free, Sprague-Dawely. Particulars: read-out: Drug metabolism.

By IC50 is commonly meant the concentration that gives 50% inhibition. As for `CC(C)c1ccc(/C=C(\C#N)C(=O)O)cc1`, the IC50 in series [1] amounted to 66 nM.

The term EC50 denotes the midpoint of the concentration-response curve. Read a low EC50 as greater potency. As for `CC(C)Cc1nn(C)c(=O)c2c(SCCCO)n(Cc3cnc(NCCCCCN)c4ccccc34)cc12`, it took 0.8 nM to reach a half-maximal effect in the series on Raji (EC50).

`CC(C)Cc1nn(C)c(=O)c2c(SCCCO)n(Cc3ccc(C#CCCCOc4ccc(C[C@H](N)C(=O)O)cc4)c4ccccc34)cc12` had an EC50 with Raji of 0.8 nM.

In the series on Raji, `CC(C)Cc1nn(C)c(=O)c2c(SCCCO)n(Cc3ccc(C#CCCCNC(=O)[C@H](N)CCC(N)=O)c4ccccc34)cc12` came in with an EC50 of 4 nM.

For `CC(C)Cc1nn(C)c(=O)c2c(SCCCO)n(Cc3cnc(NCCCCCNC(=O)[C@H](N)CCC(N)=O)c4ccccc34)cc12`, a half-maximal response in the series on Raji (EC50) required 0.16 nM.

`CC(C)Cc1nn(C)c(=O)c2c(SCCCO)n(Cc3cc(NCCCCCNC(=O)[C@H](N)CCC(N)=O)nc4ccccc34)cc12` returned an EC50 with Raji of 0.8 nM.

Turning to `N#C/C(=C\c1ccc(O)cc1)C(=O)O` [alpha-CYANO-4-HYDROXYCINNAMIC ACID], the IC50 in series [1] was 281 nM.

In the case of `CNC(=O)COc1ccc(C2=C(C#N)C3N=C4C=CC=CC4N3C(NC(=O)c3cccc(C[C@H](N)C(=O)O)c3)=C2C#N)cc1` (stereo not given in full), the IC50 in series [2] worked out at 18200 nM; with MCF7, 124000 nM.

Broadly, the inhibition is the drop in the measured response relative to a control, in per cent. Take `NC(Cc1cc(I)c(Oc2ccc(O)c(I)c2)c(I)c1)C(=O)O` (stereo not given): the inhibition in series [3] and in [4] was 90% each time.

One may read the half-life as the time in which the quantity being followed falls by half. As to `Nc1ccn([C@@H]2O[C@H](CO)[C@@H](O)C2(F)F)c(=O)n1` [GEMCITABINE], the half-life in [5] came to 9 min.

Turning to `Nc1cc(COc2c(Cl)cc(CC(N)C(=O)O)cc2Cl)c2oc(-c3ccccc3)nc2c1` (stereo not given), the ILS was found to be 14 days in the series with MIA PaCa-2 and 10 days in the series with BXPC-3.

As to `C[C@@H](O)[C@H](Nc1ccn([C@@H]2O[C@H](CO)[C@@H](O)C2(F)F)c(=O)n1)C(=O)O`, the metabolised at 8 h, 10 µM in [6] was 20%.

The values above are taken from ChEMBL document CHEMBL5214914, “Novel strategies to improve tumour therapy by targeting the proteins MCT1, MCT4 and LAT1” (Eur J Med Chem, 2021).
